Measured values: patent US12318399B2 (priority 2022, dated 2025)
Where two headings read alike, the source gives them in different places.

How the values were obtained:
[1] = test system: endometrial cancer organoids; assay: Patient-derived endometrial cancer organoid cell viability (CellTiter-Glo); format: cell-based, human
Protocol: (§1) Development of patient derived organoids: The patient derived organoids were created as follows: the patient's tissue sample was collected after surgery and bathed in Hank's Balanced Salt Solution (HBSS) (Hyclone, SH30031.02) with 1% Pencillin/Streptomycin (P/S) (Life Technologies, 15070-063) on ice. Then the sample was washed three times with Dulbecco's phosphate-buffered saline (DPBS) and 1% P/S on a shaker (70 rpm) for 15 minutes each. The tissue was then transferred into a presterilized cell-culture hood to mince it finely with a sterile blade. All minced parts were then digested in an enzyme named Accumax (Innovative Cell Technologies Inc., AM105-500) for 2.5 hours at room temperature. After 2.5-hour incubation, the whole digested tissue mince was transferred in another enzyme, TrypLE express, (Gibco, 12604-021) for another 45 minutes in a 37° C. water bath. During this time the solution was continuously agitated in every 5 minutes interval. After 45 minutes of incubation, the solutions were passed through 70 μm filter on a 50 mL falcon tube. The filter was removed, and the flowthrough with the cells was collected in 5% FBS AD+++ medium (comprising 1% TS, 2% B27, 1% N2, 25% WRN, hegf 50 ng/ml, hfgf 10-100 ng/ml, Nicotinamide 1 mM, N-acetyl cysteine 1.25 mM, Primocin 0.2%, Estrogen 2 nm, A8301 0.5 μM, and Y27632). This cell suspension was centrifuged at 1000 rpm for 5 minutes at room temperature to get the cell pellet for counting. Upon checking under hemocytometer cell number was calculated and processed for organoid culture. After checking under a microscope if we found RBC contamination in the final cell suspension, then we used Red Blood Cell Lysis Buffer (Roche Diagnostics, 11814389001) to get rid of the excess RBC. Human patient cells from endometrial cancer were grown and maintained in a humidified chamber at 37° C. with 5% CO2.
(§2) To culture patient-derived organoids, 2-3×10^3 cells were plated in a prewarmed (37° C.) 96-well plate in […] of Matrigel (5% FBS AD+++ medium) per well. Individual patient cell organoid was cultured separately in different plates. Individual patient cells were handled separately to reduce the chance of cross-contamination. After mixing cells with Matrigel, […] droplets were placed in wells and put in a 37° C. incubator with 5% CO2 for 30 minutes. Upon solidification of the Matrigel droplet with cells inside, the plate was placed inside a sterile hood and immersed the Matrigel droplet in 200 μL of organoid growth media. Cells were allowed to grow into mature organoids for 14 days. […] All treatments were done in triplicate, including vehicle-only controls (Dimethyl sulfoxide in culture medium at the highest concentration used for drug treatments).
(§3) Note: IC50 is the 50% inhibitory concentration which is conventionally used to determine drug potency with cell-based cytotoxicity tests. Similarly, all of the antioxidants were tested under the same protocol.
To assess the cell viability in organoids after treatments, CellTiter-Glo® Luminescent Assay (Promega #G7572) was used. In brief, on day 14 of organoid culture, the matrigel droplet in each well with organoid inside was immersed in 100 μL of fresh growth media and 100 μL of CellTiter-Glo® reagent following the manufacturer's guideline. Blank wells containing only media and CellTiter-Glo® reagent (no cells) were also included in each plate. Then the plates were put on a shaker at 110 RPM at room temperature for […] minutes to induce cell lysis, followed by 25 minutes at room temperature to stabilize the luminescent signal. Each step after adding the CellTiter-Glo® reagent was performed in the dark. Luminescence was measured on a FLUOstar OPTIMA plate reader (BMG Lab technologies, Offenburg, Germany). Analysis was performed by normalizing treatment values to the vehicle control and plotting them as a percentage of the vehicle control.

[2] = test system: patient derived endometrial cancer cells; assay: Patient-derived xenograft (PDX) mouse model, tumor volume; format: in vivo; conditions: monotherapy 30 mg/kg intraperitoneal, by day 14 and at day 21
Protocol: Human patient cells from endometrial cancer were injected subcutaneously into female NOD/SCID gamma mice after resuspending in 100 μL solution. […] Tumor size measured before treatment, followed by twice a week measurement. All treatment group mice were kept alive for up to 10 weeks after drug injection or until the tumor volume grows bigger than 2,500 mm^3.
Tumor size was measured along with body weight at the time of tissue collection. All tumor tissues were removed carefully from the euthanized mouse body. Tumor tissue samples were kept for histology, proteomics, genomics, and other downstream processing. All downstream processing was completed following NCI Patient-Derived Models Repository SOPs. Tumor volume graph will be plotted using GraphPad Prism 9.
The mouse studies utilized intraperitoneal dosing of various formulations of cannabis extracts comprising a known quantity of CBD.

[3] = test system: ovarian cancer organoids; assay: Patient-derived ovarian cancer organoid cell viability; format: cell-based, human; conditions: for cell viability: chemo sensitive and chemo resistant organoids, FIGS. 11A-11D
Protocol: as §1
For the Ascites samples, we centrifuged the ascites fluid at 1000 rpm for 10 minutes at room temperature to get the cell suspension. The cell suspension was then treated with Red Blood Cell Lysis Buffer (Roche Diagnostics, 11814389001) to remove the RBC from the final cell suspension. Once samples were created, they were ready for testing, which included treating the organoids with cannabis extract. Additional cells were cultured in the same manner as above.
as §2, §3
To assess the cell viability in organoids after treatments, CellTiter-Glo® Luminescent Assay (Promega #G7572) was used. In brief, on day 14 of organoid culture, the matrigel droplet in each well with organoid inside was immersed in 100 μL of fresh growth media and 100 μL of CellTiter-Glo® reagent following the manufacturer's guideline. Blank wells containing only media and CellTiter-Glo® reagent (no cells) were also included in each plate. […]

[4] = test system: chemoresistant EC, which had metastasized; assay: Testing within human patients; format: in vivo
[5] = cited from earlier work

C=C(C)[C@@H]1CCC(C)=C[C@H]1c1c(O)cc(CCCCC)cc1O [CBD isolate, cannabidiol]
response of patient derived organoids ([1]; 7 or 10 μg/mL, FIGS. 4B and 4C): virtually all patients respond | eradication ([1]; IC50 of cannabis extract combined with the higher doses of carboplatin): ~100% | tumor volumes [2]: decreased | cell viability [3]: dramatically reduce cell viability | efficacy at killing the organoids compared with native pH ([3]; pH 8): virtually no change

C=C(C)[C@@H]1CCC(C)=C[C@H]1c1c(O)cc(CCCCC)cc1O [CBD, cannabidiol]
efficacy in human patients [4]: effective in reducing chemoresistant EC | increase of Cmax ([5]; coadministration with high fat food): up to 5 fold | Tmax ([5]; delivery via the nasal mucosa): approximately 10 minutes | maximum plasma concentration (time) ([5]; oral-mucosal or sublingual delivery): 1.6 h | maximum plasma concentration (time) ([5]; orally delivered): 2.5 to 5 h

C=C(C)[C@@H]1CCC(C)=C[C@H]1c1c(O)cc(CCCCC)c(C(=O)O)c1O [CBDA, cannabidiolic acid]
reduction in organoid formation in all patients ([1]; dosing up to 50 μg/mL): ~100% | tumor volumes [2]: decreased | cell viability [3]: dramatically reduce cell viability
